{
  "source": "patent US20200032313A1",
  "about": "(SANYO CHEMICAL INDUSTRIES, LTD., priority 2017, published 2020)",
  "key": {"[1]": {"system": "luciferase-expressing Saccharomyces cerevisiae", "format": "cell-based", "conditions": "S. cerevisiae, 8 hours", "description": "Transformation was performed using Saccharomyces cerevisiae distributed by Biotechnology Center, National Institute of Technology and Evaluation, whereby luciferase-expressing microorganisms were produced. A vector pYES2 (Thermo Fisher Scientific) was digested with HindIII and XbaI, and a synthetic (synthesized by Thermo Fisher Scientific on commission) a factor-luciferase gene having a HindIII cut site at one end and an XbaI cut site at the other end was inserted into the vector. The microorganisms were transformed by the a factor-luciferase gene-inserted pYES2 according to the method described in an instruction manual of pYES2. The luciferase-expressing microorganisms were inoculated using a platinum loop into YPD broth (yeast extract 1 wt % (Difco), bacto peptone 2 wt % (Difco), and glucose 2 wt %) and were shake-cultured at 200 rpm at 30° C. for 15 hours. Then, the thus-obtained broth was resuspended in 125-ml YPD broth (containing 100 mM potassium hydrogen phosphate buffer; pH: 6) to a final optical density (hereinafter sometimes abbreviated as “OD”) of 0.1 OD/ml.\nFurther, the resuspended broth was continued to be shake-cultured at 1100 rpm at 30° C. for about 17 hours until OD was 20 to 30. When OD was 20 to 30, the broth was centrifuged (1500 g, 10 min), and resuspended in 125-ml galactose-inducing broth (the YPD broth containing 100 mM potassium phosphate buffer and also containing 2% galactose instead of glucose; pH: 6), followed by culturing at 1100 rpm at 30° C. for 2 hours.\n(§1) Subsequently, the surfactant described in Table 1 was added to the broth in the amount (wt %) described in Table 1, and the broth was cultured at 1100 rpm at 30° C. for 8 hours. Subsequently, the broth was sampled for measuring the optical density (optical density at the end of culturing) and for measuring the secretion efficiency. Then, these samples were subjected to centrifugation using a centrifuge to separate bacteria and the supernatant from the broth. Then, the supernatant and the bacteria were collected.\n(§2) The broth obtained in each of Examples 1 to 22 and Comparative Examples 1 and 2 was 10 to 1000-fold diluted in a 0.2 M Tris-HCl buffer (pH 7.4), and 20 μl of the dilution was mixed with 60 μl of a luciferin solution described below to obtain a sample. The emission intensity of the sample was measured using a luminometer under the following conditions, and the measured emission intensity was substituted into the following formula. The resulting value was regarded as the luciferase activity of the secreted and produced useful substance.\n(§3) Luminometer: “Glomax Navigator” available from Promega Corporation Luciferin solution: product of New England Biolabs Japan Inc. Measurement temperature: 25° C. Detector: emission detector Detection wavelength: 350 to 700 nm\n(§4) (Luciferase activity of secreted and produced useful substance)=(Emission intensity)×dilution factor/(optical density at the end of culturing)\n(§5) The bacteria obtained in each of Examples 1 to 22 and Comparative Examples 1 and 2 were mixed with a 0.2 M Tris-HCl buffer (pH 7.4) in an amount of 200 μl that is equal to the amount of the removed supernatant, followed by centrifugation, whereby the bacteria were washed. The washed bacteria were resuspended in a 0.2 M Tris-HCl buffer (pH 7.4) in an amount of 200 μl that is equal to the amount of the washed supernatant, and 10 to 1000-fold diluted in a 0.2 M Tris-HCl buffer (pH 7.4). The resulting dilution was used as a sample for measuring the luciferase activity on the bacterial surface.\nThen, 20 μl of the sample for measuring the luciferase activity on the bacterial surface was mixed with 60 μl of the luciferin solution to obtain a sample. The emission intensity of the sample was measured under the same conditions as for “Measurement of luciferase activity of secreted and produced useful substance”, and the measured emission intensity was substituted into the following formula. […]"}, "[2]": {"system": "luciferase-expressing Pichia pastoris", "format": "cell-based", "conditions": "8 hours", "description": "Transformation was performed using Pichia pastoris distributed by Biotechnology Center, National Institute of Technology and Evaluation, whereby luciferase-expressing microorganisms were produced. A vector pPICZ a (Thermo Fisher Scientific) was digested with XhoI and XbaI, and a synthetic (synthesized by Thermo Fisher Scientific on commission) luciferase gene having an XhoI cut site at one end and an XbaI cut site at the other end was inserted into the vector. The microorganisms were transformed by the luciferase gene-inserted pPICZ a according to the method described in an instruction manual of pPICZ a. The luciferase-expressing microorganisms were inoculated using a platinum loop into BMGY broth, and were shake-cultured at 200 rpm at 30° C. for 15 hours. Then, the thus-obtained broth was resuspended in 125-ml BMGY broth (yeast extract 1 wt % (Difco), bacto peptone 2 wt % (Difco), yeast nitrogen base w/o amino acid 1.34 wt % (Difco), glucose 2 wt %, and 100 mM potassium hydrogen phosphate; pH: 6.0) to a final OD of 0.1 OD/ml. Further, the resuspended broth was continued to be shake-cultured at 1100 rpm at 30° C. for about 17 hours until OD was 20 to 30. When OD was 20 to 30, the broth was centrifuged (1500 g, 10 min), and resuspended in 125-ml BMMY broth, followed by culturing at 1100 rpm at 30° C. for 2 hours.\nas §1, with “Two hours later, the surfactant” for “Subsequently, the surfactant”, “in Table 2 was added” for “in Table 1 was added”, “in Table 2, and the” for “in Table 1, and the”\nas §2, §3, §4, §5\nThen, 20 μl of the sample for measuring the luciferase activity on the bacterial surface was mixed with 60 μl of the luciferin solution to obtain a sample. The emission intensity of the sample was measured under the same conditions as for “Measurement of luciferase activity of secreted and produced useful substance”, and the measured emission intensity was substituted into the following formula. The resulting value was regarded as the luciferase activity of the useful substance remaining on the bacterial surface. […]"}, "[3]": {"conditions": "surfactant 0.03 wt % of broth, Examples 2, 5-11"}, "[4]": {"conditions": "surfactant 0.03 wt % of broth, Examples 13, 16-22"}},
  "note": "Read-outs that look alike come from different tables or passages of the source.",
  "data": [
    {"compound": "CCCCCCCCCCCC[N+](C)(C)C.[Cl-]", "note": "[Surfactant (A2-1), lauryl trimethyl ammonium chloride]", "values": [
      {"measurement": "Secretion efficiency (%)", "setting": "[1]; [3]", "value": 52, "unit": "%"},
      {"measurement": "Secretion efficiency (%)", "setting": "[2]; [4]", "value": 88, "unit": "%"}
    ]},
    {"compound": "CCCCCCCCCCCC[N+](C)(C)CC(=O)[O-]", "note": "[Surfactant (A3-5), betaine lauryldimethylaminoacetate]", "values": [
      {"measurement": "Secretion efficiency (%)", "setting": "[1]; [3]", "value": 56, "unit": "%"},
      {"measurement": "Secretion efficiency (%)", "setting": "[2]; [4]", "value": 90, "unit": "%"}
    ]},
    {"compound": "CCCCCCCCCCCCCCCCOP(=O)([O-])OCC[N+](C)(C)C", "note": "[Surfactant (A3-4), miltefosine, reference compound]", "values": [
      {"measurement": "Secretion efficiency (%)", "setting": "[1]; [3]", "value": 59, "unit": "%"},
      {"measurement": "Secretion efficiency (%)", "setting": "[2]; [4]", "value": 66, "unit": "%"}
    ]},
    {"compound": "sodium polyoxyethylene (average 3 mol adduct) lauryl ether acetate [Surfactant (A1-2)]", "values": [
      {"measurement": "Secretion efficiency (%)", "setting": "[1]; [3]", "value": 58, "unit": "%"},
      {"measurement": "Secretion efficiency (%)", "setting": "[2]; [4]", "value": 64, "unit": "%"}
    ]},
    {"compound": "sodium (2-dodecylamino)ethanesulfonate [Surfactant (A3-1)]", "values": [
      {"measurement": "Secretion efficiency (%)", "setting": "[1]; [3]", "value": 60, "unit": "%"},
      {"measurement": "Secretion efficiency (%)", "setting": "[2]; [4]", "value": 62, "unit": "%"}
    ]},
    {"compound": "sodium polyoxyethylene (average 2.5 mol adduct) lauryl ether sulfate [Surfactant (A1-1)]", "values": [
      {"measurement": "Secretion efficiency (%)", "setting": "[1]; [3]", "value": 66, "unit": "%"},
      {"measurement": "Secretion efficiency (%)", "setting": "[2]; [4]", "value": 66, "unit": "%"}
    ]},
    {"compound": "CCCCCCCCCCCCNCCC(=O)O", "values": [
      {"measurement": "Secretion efficiency (%)", "setting": "[1]; surfactant 0.003 wt % of broth, Example 1", "value": 56, "unit": "%"},
      {"measurement": "Secretion efficiency (%)", "setting": "[1]; [3]", "value": 61, "unit": "%"},
      {"measurement": "Secretion efficiency (%)", "setting": "[1]; surfactant 0.3 wt % of broth, Example 3", "value": 65, "unit": "%"},
      {"measurement": "Secretion efficiency (%)", "setting": "[1]; surfactant 3 wt % of broth, Example 4", "value": 75, "unit": "%"},
      {"measurement": "Secretion efficiency (%)", "setting": "[2]; surfactant 0.003 wt % of broth, Example 12", "value": 64, "unit": "%"},
      {"measurement": "Secretion efficiency (%)", "setting": "[2]; [4]", "value": 80, "unit": "%"},
      {"measurement": "Secretion efficiency (%)", "setting": "[2]; surfactant 0.3 wt % of broth, Example 14", "value": 84, "unit": "%"},
      {"measurement": "Secretion efficiency (%)", "setting": "[2]; surfactant 3 wt % of broth, Example 15", "value": 67, "unit": "%"}
    ]},
    {"compound": "CCCCCCCCCCCC[N+](C)(C)CCCS(=O)(=O)O.[OH-]", "note": "[Surfactant (A3-3), dodecyldimethyl(3-sulfopropyl)ammonium hydroxide]", "values": [
      {"measurement": "Secretion efficiency (%)", "setting": "[1]; [3]", "value": 61, "unit": "%"},
      {"measurement": "Secretion efficiency (%)", "setting": "[2]; [4]", "value": 75, "unit": "%"}
    ]}
  ]
}
